According to patent US8232253B2, “Treatment of lung cancer” (Ramot at Tel-Aviv University Ltd., priority 2006, dated 2012):

How the values were obtained:
A549 cells = test: A549-cell-implanted nude mouse model, tumor growth; type: in vivo, nude mice
Protocol: (§1) Nude mice (6 weeks old) were housed in barrier facilities on a 12-h light/dark cycle. Food and water were supplied ad libitum. On day zero, A549 or HTB-58 cells (5×10^6 cells in 0.1 ml PBS) were implanted subcutaneously (s.c.) just above the right femoral joint. After 5 or 11 days the mice were separated randomly into control groups that had received only the vehicle and FTS-treated groups. Daily FTS treatments were administered either intraperitoneally (i.p.) or orally. Tumor volumes or weights were determined as described in Barkan, B., Starinsky, S., Friedman, E., Stein, R., Kloog, Y., Clin Cancer Res 12:5533-42 (2006). Gemcitabine treatment (36 mg/kg, i.p.) was administered every 4 days.
To determine whether FTS inhibited tumor growth in vivo, experiments were conducted using a nude mouse model. The lung cancer cells were implanted s.c. above the right femoral joint and the mice were then treated with FTS. In a first experiment, the effect of i.p. administration of FTS on tumor growth in A549 cells was assessed. Treatment was started 5 days after cell implantation, by which time the tumors were palpable. Tumor volumes were determined 24 days after implantation in two groups of mice (n=8) that had received daily i.p. administration of either the vehicle (control) or 10 mg/kg FTS.
In an additional set of experiments, the A549-cell-implanted nude mouse model was used to examine the effect of orally administered FTS on tumor growth. First, cells were implanted as described above and daily oral treatment with FTS (50 mg/kg; n=6) or vehicle (n=5) was started either 11 days (FIG. 14C) or 6 days (FIG. 14D) after implantation. […] Next, the effects of orally administered FTS, alone or in combination with gemcitabine, on A549-cell tumor growth was examined (FIG. 14D). Six days after cell implantation, mice were divided into four groups (n=8 per group) and treated orally with vehicle alone (control), FTS alone (60 mg/kg), vehicle and gemcitabine (36 mg/kg, i.p. every 4 days), or FTS and gemcitabine. Treatments with gemcitabine began 1 week after FTS treatment was started.

HTB-58 cells = test: HTB-58-cell-implanted nude mouse model, tumor growth; type: in vivo, nude mice; details: 10 mg/kg FTS i.p. daily
Protocol: as §1
Tumor volume measured 14 days after cell implantation in that group was 0.02±0.045 cm^3 compared to 0.09±0.08 cm^3 in the vehicle-treated controls (P<0.05).

[1] = test system: human NSCLC cell lines H1734, H2030, H1975, H3255; test: Alamar blue viable cell assay in NSCLC cell lines; type: cell-based; details: increasing FTS concentrations, 96 hours; H1734, H2030 (KRAS mutations), H1975, H3255 (EGFR mutations)
Protocol: To determine whether FTS sensitized other human NSCLC cell lines to cell death, experiments were conducted on cell lines H1734 and H2030 (KRAS mutations) and H1975 and H3255 (EGFR mutations). The four cell lines were grown in increasing concentrations of FTS (dissolved in DMSO). After 96 hours, viable cells were quantified using an Alamar blue assay. Results are the mean±standard error of three independent experiments, in which there were 3 replicates of each condition, as shown in FIG. 15.

[2] = 50 mg/kg FTS oral daily from day 11, after 16 days of treatment (FIG. 14C)
[3] = 60 mg/kg FTS oral alone, from day 6 (FIG. 14D)

## CC(C)=CCC/C(C)=C/CC/C(C)=C/CSc1ccccc1C(=O)O [FTS, S-farnesylthiosalicylic acid]
A549 cells; 10 mg/kg FTS i.p. daily from day 5, 24 days after implantation
  inhibition of tumor growth relative to control (tumor volume): 53.8%
A549 cells; [2]
  inhibition in tumor growth: 53.7±19.1%
  tumor weight (mean±SD): 0.4 ± 0.19 g
A549 cells; [3]
  inhibition in tumor growth: 46.2±16.3%
  tumor weight (mean±SD): 0.49 ± 0.15 g
HTB-58 cells
  inhibition of tumor growth: 76.4±48.8%
HTB-58 cells; 14 days after cell implantation
  tumor volume: 0.02±0.045 cm^3
[1]
  sensitization of NSCLC cell lines to cell death: sensitized
